Earlier results, collected in patent publication US20080008772A1, “Narcotic biphasic release compositions and methods for treatment of coughing, sneezing, rhinorrhea, and/or nasal obstruction” (Everett Laboratories, Inc., priority 2006, published 2008).

Experiments:
[1] = in vivo

For `COc1ccccc1OCC(O)CO` (centres unmarked) [Guaifenesin, 3-(2-methoxyphenoxy)-1,2 propanediol], the plasma half life [1] is given as “one”.
In the case of `COc1ccc2c3c1O[C@H]1C(=O)CC[C@H]4[C@@H](C2)N(C)CC[C@]314.COc1ccc2c3c1O[C@H]1C(=O)CC[C@H]4[C@@H](C2)N(C)CC[C@]314.O.O.O.O.O.O=C(O)C(O)C(O)C(=O)O.O=C(O)C(O)C(O)C(=O)O` [Hydrocodone bitartrate, 4,5a-epoxy-3-methoxy-17-methylmorphinan-6-one tartrate (1:1)hydrate (2:5)], the sedative action (at equi-effective doses, versus codeine) is listed as “greater than codeine”.
For `COc1ccc2c3c1O[C@H]1C(=O)CC[C@H]4[C@@H](C2)N(C)CC[C@]314` [hydrocodone, 4,5α-epoxy-3-methoxy-17-methylmorphinan-6-one], the analgesic effects (at therapeutic antitussive doses) is given as “does exert analgesic effects”, the “effects on the cardiovascular system” value (therapeutic doses) is given as “insignificant” and the constipation effects (versus morphine and codeine) is given as “much weaker than that of morphine and no stronger than that of codeine”.
